Test results: ChEMBL document CHEMBL1909046, “DrugMatrix in vitro pharmacology data”

Tests used:
[1] = target: T1, Alpha-1A adrenergic receptor (Rattus norvegicus, UniProt P43140); experiment: DRUGMATRIX: Alpha-1A adrenergic receptor radioligand binding (ligand: prazosin); format: cell membranes, Wistar, Submaxillary gland, Membrane; details: Not Active = under 50% inhibition at 10 µM
T1 sequence (P43140 whole entry): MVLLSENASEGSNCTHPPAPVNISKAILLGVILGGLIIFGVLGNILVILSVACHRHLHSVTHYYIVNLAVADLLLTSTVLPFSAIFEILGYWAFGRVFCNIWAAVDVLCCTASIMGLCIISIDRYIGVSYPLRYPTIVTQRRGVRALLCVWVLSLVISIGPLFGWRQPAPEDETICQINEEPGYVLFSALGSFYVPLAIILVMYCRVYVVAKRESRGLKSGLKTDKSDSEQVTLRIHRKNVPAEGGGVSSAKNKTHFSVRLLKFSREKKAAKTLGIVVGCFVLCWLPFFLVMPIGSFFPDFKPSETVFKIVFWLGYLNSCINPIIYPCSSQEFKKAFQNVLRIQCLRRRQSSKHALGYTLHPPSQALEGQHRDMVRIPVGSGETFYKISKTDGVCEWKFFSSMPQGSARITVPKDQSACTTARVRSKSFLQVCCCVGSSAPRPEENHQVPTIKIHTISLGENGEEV

[2] = target: T2, 5-hydroxytryptamine receptor 1A (Rattus norvegicus, UniProt P19327); format: cell membranes, CHO-K1, Membrane; also: in other assays of this panel Not Active means under 50% inhibition at 10 µM
T2 sequence (P19327 whole entry): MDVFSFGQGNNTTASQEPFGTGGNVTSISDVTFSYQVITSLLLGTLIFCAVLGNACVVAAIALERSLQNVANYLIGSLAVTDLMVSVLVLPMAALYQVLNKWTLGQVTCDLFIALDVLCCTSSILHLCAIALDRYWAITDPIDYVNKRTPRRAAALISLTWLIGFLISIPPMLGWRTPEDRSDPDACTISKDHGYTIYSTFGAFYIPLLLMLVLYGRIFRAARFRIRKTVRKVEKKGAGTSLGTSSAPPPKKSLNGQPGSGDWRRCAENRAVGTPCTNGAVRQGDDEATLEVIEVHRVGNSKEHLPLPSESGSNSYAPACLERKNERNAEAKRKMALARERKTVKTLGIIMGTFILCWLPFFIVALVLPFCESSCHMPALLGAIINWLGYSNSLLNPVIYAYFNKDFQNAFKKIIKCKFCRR

Substance-K receptor = target: T3, Substance-K receptor (Homo sapiens, UniProt P21452); format: cell membranes, CHO, Membrane; also: in other assays of this panel Not Active means under 50% inhibition at 10 µM
T3 sequence (P21452 whole entry): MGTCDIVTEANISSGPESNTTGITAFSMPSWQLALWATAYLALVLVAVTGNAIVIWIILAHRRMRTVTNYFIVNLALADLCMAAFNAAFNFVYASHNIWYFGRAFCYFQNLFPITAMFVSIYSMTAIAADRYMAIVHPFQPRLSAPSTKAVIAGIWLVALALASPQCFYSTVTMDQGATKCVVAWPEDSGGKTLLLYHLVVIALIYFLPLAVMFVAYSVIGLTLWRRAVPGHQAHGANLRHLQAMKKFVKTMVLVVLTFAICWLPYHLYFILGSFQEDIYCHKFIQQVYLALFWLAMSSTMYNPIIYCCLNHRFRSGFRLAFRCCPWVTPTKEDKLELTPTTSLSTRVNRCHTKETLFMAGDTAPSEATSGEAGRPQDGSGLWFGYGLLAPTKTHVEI

[3] = target: T4, Amine oxidase [flavin-containing] A (Homo sapiens, UniProt P21397); experiment: DRUGMATRIX: Monoamine Oxidase MAO-A enzyme inhibition (substrate: Kynuramine); design: species or system BTI-TN-5B1-4; details: bti-tn-5b1-4; Not Active = under 50% inhibition at 10 µM
T4 sequence (P21397 whole entry): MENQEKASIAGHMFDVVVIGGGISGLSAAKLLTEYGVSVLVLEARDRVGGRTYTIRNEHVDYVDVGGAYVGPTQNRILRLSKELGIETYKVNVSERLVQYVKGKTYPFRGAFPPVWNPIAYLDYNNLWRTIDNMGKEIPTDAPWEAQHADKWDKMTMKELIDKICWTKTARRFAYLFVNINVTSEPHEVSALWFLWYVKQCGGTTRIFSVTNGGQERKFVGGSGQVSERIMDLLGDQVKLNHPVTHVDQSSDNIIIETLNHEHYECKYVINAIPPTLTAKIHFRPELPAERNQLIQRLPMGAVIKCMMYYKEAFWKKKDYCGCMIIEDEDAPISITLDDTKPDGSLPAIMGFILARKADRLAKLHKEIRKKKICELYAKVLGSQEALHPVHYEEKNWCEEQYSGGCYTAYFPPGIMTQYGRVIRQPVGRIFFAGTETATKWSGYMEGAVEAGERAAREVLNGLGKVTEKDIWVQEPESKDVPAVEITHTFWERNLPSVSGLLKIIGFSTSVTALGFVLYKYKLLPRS

Cytochrome P450 1A2 = target: T5, Cytochrome P450 1A2 (Homo sapiens, UniProt P05177); details: bti-tn-5b1-4; also: in other assays of this panel Not Active means under 50% inhibition at 10 µM
T5 sequence (P05177 whole entry): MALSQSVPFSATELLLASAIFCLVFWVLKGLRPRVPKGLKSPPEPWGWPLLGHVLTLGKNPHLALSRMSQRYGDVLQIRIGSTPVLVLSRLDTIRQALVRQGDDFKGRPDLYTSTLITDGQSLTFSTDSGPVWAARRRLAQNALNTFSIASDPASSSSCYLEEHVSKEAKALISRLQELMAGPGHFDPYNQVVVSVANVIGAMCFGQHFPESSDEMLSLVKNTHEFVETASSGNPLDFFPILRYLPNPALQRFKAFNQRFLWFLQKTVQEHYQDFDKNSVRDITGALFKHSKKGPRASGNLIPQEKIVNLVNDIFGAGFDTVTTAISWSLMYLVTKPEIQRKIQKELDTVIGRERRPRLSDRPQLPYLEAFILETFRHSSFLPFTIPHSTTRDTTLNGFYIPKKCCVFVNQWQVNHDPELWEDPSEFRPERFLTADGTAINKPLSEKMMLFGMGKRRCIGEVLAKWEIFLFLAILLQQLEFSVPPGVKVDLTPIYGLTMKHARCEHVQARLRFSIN

Compound	IC50 [1]	IC50 ([2]; cho-k1)	IC50 (Substance-K receptor; cho)	IC50 [3]	IC50 (Cytochrome P450 1A2)	Ki (Cytochrome P450 1A2)	IC50 ([1]; read-out: IC50) [µM]	Ki ([1]; read-out: Ki) [µM]	IC50 ([2]; read-out: IC50) [µM]	Ki ([2]; read-out: Ki) [µM]	IC50 (Substance-K receptor; read-out: IC50) [µM]	Ki (Substance-K receptor; read-out: Ki) [µM]	Ki [1]	Ki ([2]; cho-k1)	Ki (Substance-K receptor; cho)	Ki [3]
O=c1ncn2nc(Sc3ccc(F)cc3F)ccc2c1-c1c(Cl)cccc1Cl [NEFLAMAPIMOD]	Not Active	Not Active	Not Active	Not Active	Not Active	Not Active	–	–	–	–	–	–	–	–	–	–
CO[C@H]1/C=C/O[C@@]2(C)Oc3c(C)c(O)c4c(O)c(c(/C=N/N5CCN(C)CC5)c(O)c4c3C2=O)NC(=O)/C(C)=C\C=C\[C@H](C)[C@H](O)[C@@H](C)[C@@H](O)[C@@H](C)[C@H](OC(C)=O)[C@@H]1C [RIFAMPIN]	Not Active	Not Active	Not Active	Not Active	Not Active	Not Active	–	–	–	–	–	–	–	–	–	–
C=CCC1(C(C)CCC)C(=O)NC(=O)NC1=O (stereo not drawn) [SECOBARBITAL]	Not Active	Not Active	Not Active	Not Active	Not Active	Not Active	–	–	–	–	–	–	–	–	–	–
C[C@@H]1CN(c2c(F)c(N)c3c(=O)c(C(=O)O)cn(C4CC4)c3c2F)C[C@H](C)N1 [SPARFLOXACIN]	Not Active	Not Active	Not Active	Not Active	Not Active	Not Active	–	–	–	–	–	–	–	–	–	–
Cc1noc(NS(=O)(=O)c2ccc(N)cc2)c1C [SULFISOXAZOLE]	Not Active	Not Active	Not Active	Not Active	Not Active	Not Active	–	–	–	–	–	–	–	–	–	–
Nc1c2c(nc3ccccc13)CCCC2 [TACRINE]	–	Not Active	Not Active	Not Active	Not Active	Not Active	2.75	1.11	–	–	–	–	–	–	–	–
CC/C(=C(\c1ccccc1)c1ccc(OCCN(C)C)cc1)c1ccccc1 [TAMOXIFEN]	–	–	–	Not Active	Not Active	Not Active	22.1	8.92	12.2	6.95	3.67	1.22	–	–	–	–
CC(C)N1CCN(c2ccc(OCC3COC(Cn4cncn4)(c4ccc(Cl)cc4Cl)O3)cc2)CC1 (stereo not drawn) [TERCONAZOLE]	–	Not Active	Not Active	Not Active	Not Active	Not Active	13.3	5.37	–	–	–	–	–	–	–	–
Nc1nc2nc[nH]c2c(=S)[nH]1 [THIOGUANINE]	Not Active	Not Active	Not Active	Not Active	Not Active	Not Active	–	–	–	–	–	–	–	–	–	–
Cc1cccc(N(C)C(=S)Oc2ccc3ccccc3c2)c1 [TOLNAFTATE]	Not Active	Not Active	Not Active	Not Active	Not Active	Not Active	–	–	–	–	–	–	–	–	–	–
NC[C@H]1CC[C@H](C(=O)O)CC1 [TRANEXAMIC ACID]	Not Active	Not Active	Not Active	Not Active	Not Active	Not Active	–	–	–	–	–	–	–	–	–	–
CC1(C)O[C@@H]2C[C@H]3[C@@H]4CCC5=CC(=O)C=C[C@]5(C)[C@@]4(F)[C@@H](O)C[C@]3(C)[C@]2(C(=O)CO)O1 [TRIAMCINOLONE ACETONIDE]	Not Active	Not Active	Not Active	Not Active	Not Active	Not Active	–	–	–	–	–	–	–	–	–	–
NS(=O)(=O)c1cc2c(cc1Cl)NC(C(Cl)Cl)NS2(=O)=O (stereo not drawn) [TRICHLORMETHIAZIDE]	Not Active	Not Active	Not Active	Not Active	Not Active	Not Active	–	–	–	–	–	–	–	–	–	–
Cc1c(C)c2c(c(C)c1O)CCC(C)(COc1ccc(CC3SC(=O)NC3=O)cc1)O2 (stereo not drawn) [TROGLITAZONE]	Not Active	Not Active	Not Active	Not Active	Not Active	Not Active	–	–	–	–	–	–	–	–	–	–
N[C@@H]1[C@H]2CN(c3nc4c(cc3F)c(=O)c(C(=O)O)cn4-c3ccc(F)cc3F)C[C@@H]12 [TROVAFLOXACIN]	Not Active	Not Active	Not Active	Not Active	Not Active	Not Active	–	–	–	–	–	–	–	–	–	–
N#CC(C#N)=Cc1ccc(O)c(O)c1 [TYRPHOSTIN 23]	Not Active	Not Active	Not Active	Not Active	Not Active	Not Active	–	–	–	–	–	–	–	–	–	–
CC[C@]1(O)C[C@H]2CN(CCc3c([nH]c4ccccc34)[C@@](C(=O)OC)(c3cc4c(cc3OC)N(C=O)[C@H]3[C@@](O)(C(=O)OC)[C@H](OC(C)=O)[C@]5(CC)C=CCN6CC[C@]43[C@@H]65)C2)C1 [VINCRISTINE]	Not Active	Not Active	Not Active	Not Active	Not Active	Not Active	–	–	–	–	–	–	–	–	–	–
CCCOc1ccccc1-c1nc2nn[nH]c2c(=O)[nH]1 [ZAPRINAST]	Not Active	Not Active	Not Active	Not Active	Not Active	Not Active	–	–	–	–	–	–	–	–	–	–
SODIUM NITROPRUSSIDE	Not Active	Not Active	Not Active	Not Active	Not Active	Not Active	–	–	–	–	–	–	Not Active	Not Active	Not Active	Not Active
